Patent publication US5990173A, “2,3,5-trimethyl-4-hydroxyanilide derivatives, preparation thereof and therapeutical use thereof” (Pierre Fabre Medicament, priority 1995, dated 1999)
Like-named read-outs stand apart in the source and are kept apart here.

Tests used:
[1] = system: hepatic microsomal lipids (rat liver microsomes); test: Antioxidant activity: chemical peroxidation of hepatic microsomal lipids (TBARS); format: biochemical; conditions: Fe3+/ADP/dihydroxyfumaric acid
Description: a) Chemical peroxidation.
In the presence of Fe^3+ and ADP, dihydroxyfumaric acid undergoes an autoxidation which generates oxygen free radicals. The latter bring about the peroxidation of hepatic microsomal lipids.

[2] = system: plasma cholesterol; test: Hypocholesterolemic activity in rats on a hypercholesterolemic diet; format: in vivo, rat; conditions: male rats, 4 days, Altromin C 1061 hypercholesterolemic diet, dose which reduces plasma cholesterol by half relative to controls
Protocol: 2) Hypocholesterolemic activity
Male rates (160-180 g) are subjected for 4 days to an Altromin C 1061 hypercholesterolemic diet, and concomitantly treated orally with compounds suspended in a 2% solution of Tween 80 in distilled water.
On day 5, the animals, which have not fasted, are anesthethized with ethyl ether and exsanguinated by drawing blood at the abdominal aorta onto EDTA. The blood is immediately centrifuged and the plasma stored at 4° C.
Plasma cholesterol is then assayed by the CHOD-PAP method (Boehringer-Mannheim Ref. 237574). The median effective dose (ED50) corresponds to the dose which reduces the plasma cholesterol concentration by half relative to control animals.

[3] = molecular target: ACAT (acyl-CoA:cholesterol O-acyl-transferase enzyme); test: Inhibition of ACAT in vitro; format: biochemical, rat; conditions: technique of H. Chautan et al.
Description: The compounds were studied for their inhibitory effect on ACAT and hypocholesterolemic effect in rats, on the one hand, and for their antioxidant effect, on the other hand.

[4] = system: Human LDL; test: Antioxidant activity: oxidation of LDL by CuSO4 (TBARS); format: biochemical; conditions: human LDL oxidized with 10 μM CuSO4, 6 hours, TBARS at 532 nm
[5] = Rattus norvegicus, po, 96 h, read-out: ED50

Compound	IC50 [1] [nM]	ED50 [2, 5] [mg/kg]	IC50 [3] [nM]	ED50 ([2]; oral) [mg/kg]	IC50 [4] [nM]
CCCCCCCCCCCCSC(C(=O)Nc1cc(C)c(O)c(C)c1C)C(C)C (stereo not drawn) [Compound 5, 2',3',5'-Trimethyl-4'-hydroxy-α-(dodecylthio)isovaleranilide]	5000	1	630		
CCCCCCCCCCCCSC(C(=O)Nc1cc(C)c(O)c(C)c1C)c1ccccc1 (single isomer, unassigned; (+)) [Compound 16, (+)-2',3',5'-Trimethyl-4'-hydroxy-α-dodecylthio-α-phenylacetanilide]				0.15	4000
CCCCCCCCCCCCSC(CCC)C(=O)Nc1cc(C)c(O)c(C)c1C (stereo not drawn) [Compound 6, 2',3',5'-Trimethyl-4'-hydroxy-α-(dodecylthio)valeranilide]	300	1	110		
Cc1cc(NC(=O)C(C)(C)Sc2ccc(Cl)cc2)c(C)c(C)c1O [Compound 9, 2',3',5'-Trimethyl-4'-hydroxy-α-(p-chlorophenylthio)isobutyranilide]			1120		
CCCCCCCCCCCC[S+]([O-])C(C)(C)C(=O)Nc1cc(C)c(O)c(C)c1C (stereo not drawn) [Compound 12, 2',3',5'-Trimethyl-4'-hydroxy-α-(dodecylsulfinyl)bobutyranilide]					3000
CCCCCCCCCCCCSC(C(=O)Nc1cc(C)c(O)c(C)c1C)c1ccc(OC)cc1 (stereo not drawn) [Compound 14, 2',3',5'-Trimethyl-4-hydroxy-α-dodecylthio-α-(p-methoxyphenyl)acetanilide]		1			
CCCCCCCCCCCCSC(C(=O)Nc1cc(C)c(O)c(C)c1C)c1ccccc1 (stereo not drawn) [Compound 7, 2',3',5'-Trimethyl-4'-hydroxy-α-dodecylthio-α-phenylacetanilide]	600	0.2			13000
CCCCCCCCCCCCSC(C)(C)C(=O)Nc1cc(C)c(O)c(C)c1C [Compound 8, 2',3',5'-Trimethyl-4'-hydroxy-α-(dodecylthio)isobutyranilide]	3000	10	190		
CCCCCCCCCCC(C)(C)C(=O)Nc1c(OC)cc(OC)cc1OC [CI 976, reference compound]	> 10000	8.3			100000
CCCCCCCCCCCCSC(CC)C(=O)Nc1cc(C)c(O)c(C)c1C (stereo not drawn) [Compound 3, 2',3',5'-Trimethyl-4'-hydroxy-α-(dodecylthio)butyranilide]	> 10000	4	310		
Cc1cc(NC(=O)C(C)(C)Oc2ccc(Cl)cc2)c(C)c(C)c1O [Compound 11, 2',3',5'-Trimethyl-4'-hydroxy-α-(p-chlorophenoxy)isobutyranilide]			1100		
CCCCCCCCCCCCSC(CCCC)C(=O)Nc1cc(C)c(O)c(C)c1C (stereo not drawn) [Compound 4, 2',3',5'-Trimethyl-4'-hydroxy-α-(dodecylthio)hexananilide]	500	0.5	160		10000
CCCCCCCCCCCCSCC(=O)Nc1cc(C)c(O)c(C)c1C [Compound 2, 2',3',5'-Trimethyl-4'-hydroxy-α-(dodecylthio)acetanilide]	5000	> 10	300		
Vitamin E [reference compound]	2300				10000
CCCCCCCN(CCCCCSc1nc(-c2ccccc2)c(-c2ccccc2)[nH]1)C(=O)Nc1ccc(F)cc1F [DUP 128, reference compound]	> 10000	1.1			30000
